Experimental data reported in patent US9562076B2, “Hydrophobic modified pres-derived peptides of hepatitis B virus (HBV) and their use as HBV and HDV entry inhibitors” (priority 2008, dated 2017).
Ends that are not written are not given here.

Test system: HBV of genotype D
Type: cell-based, hepatitis B virus
Conditions: for IC90: HepaRG cells, HBV genotype D inoculum, HBsAg, Table 1
Experimental: HepaRG cells were grown in William's E medium supplemented with 10% fetal calf serum (FCS), 100 units/ml penicillin, 100 μg/ml streptomycin, 5 μg/ml insulin and 5×10^−5 M hydrocortisone hemisuccinate (16). Cells were passaged 1/5 every two weeks by trypsination. Two to three weeks before infection cell differentiation was induced by adding 2% DMSO into the maintenance medium. The medium was exchanged every 2-3 days.
As an infectious inoculum, a 50-fold concentrated culture supernatant of HepG2 clone 2.2.15 (23) cells was used, because of an unlimited supply and a constant quality. It was prepared from freshly collected supernatants by precipitating viral particles in the presence of 6% polyethylene glycol (PEG) 8000. The pellet was resuspended in phosphate buffered saline (PBS) containing 25% FCS. Aliquots were stored at −80° C. Differentiated HepaRG cells or PHH were incubated with the concentrated infectious source, 10-fold diluted in culture medium supplemented with 4% PEG 8000 (Sigma), for 20 h at 37° C. At the end of the incubation, cells were washed three times with the culture medium and maintained in the presence of 2% DMSO and 5×10^−5 M hydrocortisone hemisuccinate and harvested at indicated times.
Competition experiments were performed in 12-well plates. Approximately 1×10^6 cells were first pre-incubated for 30 min with chemically synthesized HBV derived peptides followed by a co-incubation of cells with peptide and virus for 20 h. All competition series were performed at least twice and the results of one representative experiment are shown in each case (see FIGS. 3 to 7).
HepaRG cells were infected either in absence (0 nM) or in the presence of • 1, 5, 25, 100 and 2000 nM of • HBVpreS/2-48^myr(D), • HBVpreS/2-48^myr(C), • HBVpreS/(−11)-48^myr(C), • HBVpreS/2-48^stearoyl(C) and • HBVpreS/(−11)-48^stearoyl(C); or • 0.125; 0.25; 0.5; 0.75 and 1 nM of • HBVpreS/2-48^myr(consensus), • HBVpreS/2-48^stearoyl(consensus), • 1, 5, 25, 100 and 1000 nM of • HBVpreS/2-48^stearoyl(D), • HBVpreS/2-15^stearoyl(D), • HBVpreS/2-21^stearoyl(D), • HBVpreS/2-26^stearoyl(D) and • HBVpreS/2-33^stearoyl(D); or • 1, 5, 25, 100 and 1000 nM of • HBVpreS/2-48^stearoyl(D), • HBVpreS/2-33^stearoyl(D), • HBVpreS/5-33^stearoyl(D), • HBVpreS/5-48^stearoyl(D), • HBVpreS/9-33^stearoyl(D) and • HBVpreS/9-48^stearoyl(D); or • 1, 5, 25, 100 and 1000 nM of • HBVpreS/2-48^stearoyl(D), • HBVpreS/2-48^stearoyl(D-AS^11-15)(D), • HBVpreS/2-48^stearoyl(Ala^11-15)(D), • HBVpreS/2-48^stearoyl(Δ17-21)(D), • HBVpreS/2-48^stearoyl(Ala^17-21)(D); or • 1, 5, 25, 100 and 1000 nM of • HBVpreS/2-48^stearoyl(retroinverso)(D) and • HBVpreS/2-48^stearoyl(Ala^21,23,29,30)(D); or • 1, 5, 25, 100 and 1000 nM of • HBVpreS/2-48^stearoyl(Ala^18)(D), • HBVpreS/2-48^stearoyl(Δ11-15)(D), • HBVpreS/2-48^stearoyl(Ser^13)(D), • HBVpreS/2-48^stearoyl(Arg^11)(D).; or • 50, 100, 150, 250 and 1000 pM […] of • HBVpreS/2-48^myr(C) and • HBVpreS/2-48^stearoyl(C), wherein (C) refers to HBV genotype C Q46K.
The infectious inoculum (HBV of genotype D) and the peptides were incubated overnight. After washing, cells were maintained for another 12 days to allow viral gene expression. Cell culture supernatants from day 8-12 were collected and analyzed for secreted HBSAg using a quantitative commercially available ELISA. HBsAg values from the respective uncompleted infection were set to 100% and the degree of infection inhibition is given in % of the uncompleted infection.

Row | Molecule | inhibition of the entry of HBV genotype D by a genotype C derived peptide (cross prevention) | IC90 | IC50 (of genotype D)
1 | HBVpreS/2-21^stearoyl(C): stearoylated residues 2 to 21 of genotype C, SEQ ID NO. 13 (GTNLSVPNPLGFFPDHQLDP; not fully specified (N-terminus); also: stearoyl) | can inhibit the entry of HBV genotype D |  | 
2 | HBVpreS/2-48^myr(C) | can inhibit the entry of HBV genotype D | ~5 nM | 
3 | HBVpreS/2-48^stearoyl(D): stearoylated residues 2 to 48 of genotype D, SEQ ID NO. 16 |  | ~3 nM | 
4 | CCCCCCCCCCCCCCCCCC(=O)NCC(=O)N[C@@H](CCC(N)=O)C(=O)N[C@@H](CC(N)=O)C(=O)N[C@@H](CC(C)C)C(=O)N[C@@H](CO)C(=O)N[C@H](C(=O)N[C@@H](CO)C(=O)N[C@@H](CC(N)=O)C(=O)N1CCC[C@H]1C(=O)N[C@@H](CC(C)C)C(=O)NCC(=O)N[C@@H](Cc1ccccc1)C(=O)N[C@@H](Cc1ccccc1)C(=O)N1CCC[C@H]1C(=O)N[C@@H](CC(=O)O)C(=O)N[C@@H](Cc1c[nH]cn1)C(=O)N[C@@H](CCC(N)=O)C(=O)N[C@@H](CC(C)C)C(=O)N[C@@H](CC(=O)O)C(=O)N1CCC[C@H]1C(=O)O)[C@@H](C)O [HBVpreS/2-21^stearoyl] |  |  | ~8 nM
5 | HBVpreS/2-48^stearoyl(C) |  | ~1 nM | 
